Patent US20260356820A1, “Pyrrolidine and Imidazolidine Based DNA Polymerase Theta Inhibitors and Use Thereof” (Thomas Jefferson University, priority 2022, published 2026)

What follows are molecules tested against T1, human Polq polymerase domain (Homo sapiens, UniProt O75417) (assay: Cy5 fluorescence assay of Polq polymerase domain inhibition). Conditions: not given.
T1 sequence (O75417 1792-2590): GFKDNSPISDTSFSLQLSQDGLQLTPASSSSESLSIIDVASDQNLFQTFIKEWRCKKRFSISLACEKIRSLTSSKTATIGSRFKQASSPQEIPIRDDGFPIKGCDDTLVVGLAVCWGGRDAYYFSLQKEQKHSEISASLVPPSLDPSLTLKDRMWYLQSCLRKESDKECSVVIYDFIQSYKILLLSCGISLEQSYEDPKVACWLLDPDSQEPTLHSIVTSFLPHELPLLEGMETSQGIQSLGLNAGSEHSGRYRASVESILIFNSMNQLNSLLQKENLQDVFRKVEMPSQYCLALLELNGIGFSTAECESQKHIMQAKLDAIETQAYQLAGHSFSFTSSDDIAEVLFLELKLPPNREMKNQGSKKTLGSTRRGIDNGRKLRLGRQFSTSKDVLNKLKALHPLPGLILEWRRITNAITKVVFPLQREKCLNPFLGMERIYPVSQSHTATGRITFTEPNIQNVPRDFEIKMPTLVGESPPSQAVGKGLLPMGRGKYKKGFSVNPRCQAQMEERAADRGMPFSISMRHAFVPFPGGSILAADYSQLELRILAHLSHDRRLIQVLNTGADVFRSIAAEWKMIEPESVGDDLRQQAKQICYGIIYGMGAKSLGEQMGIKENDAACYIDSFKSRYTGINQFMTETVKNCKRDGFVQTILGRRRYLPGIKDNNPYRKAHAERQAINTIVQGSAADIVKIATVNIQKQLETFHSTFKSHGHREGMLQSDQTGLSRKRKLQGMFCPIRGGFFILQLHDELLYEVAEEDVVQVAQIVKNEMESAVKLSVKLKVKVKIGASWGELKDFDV
Format: biochemical
Method: The following Cy5 fluorescence assay was used to measure the ability of compounds to inhibit Polq polymerase domain in vitro. The fluorescent based assay was performed as follows: 60 nM of the pre-annealed primer-template containing a 5′ Cy5 fluorophore conjugated template strand (SEQ ID NO:3: 5′-/5Cy5/[…]-3′), a downstream complementary oligo conjugated with a 3′ Blackhole quencher (SEQ ID NO:4: 5′-CTAAGCTCACAGTG/3IAbRQSp/-3′) and a primer strand (SEQ ID NO:5: 5′-CTGTCCTGCATGATG-3′) was mixed with 50 uM 2′-deoxyribonucleoside triphosphates (dNTPs), 0.1 mg/mL Bovine serum albumin (BSA), 0.01% NP-40, 10% glycerol, 1 mM dithiothreitol (DTT), 10 mM MgCl2, 25 mM TrisHCl pH 7.8 in the presence of 2.5% DMSO with or without various concentrations (7-point dilution series) of Polq small molecule inhibitors represented by Formula I at 37 °C in a volume of 40 μL.

SMILES | IC50 [nM]
CN(C(=O)Oc1c(N2CCN(CCO)C2=O)cc(C(F)(F)F)cc1C(F)(F)F)c1ccc(F)cc1 [Example 6, 2,4-bis(trifluoromethyl)-6-(3-(2-hydroxyethyl)-2-oxoimidazolidin-1-yl)phenyl (4-fluorophenyl)(methyl)carbamate] | 3.2
CN(C(=O)Oc1c(N2CCNC2=O)cc(C(F)(F)F)cc1C(F)(F)F)c1ccc(F)cn1 [Example 52, 2-(2-oxoimidazolidin-1-yl)-4,6-bis(trifluoromethyl)phenyl (5-fluoropyridin-2-yl)(methyl)carbamate] | 11.4
Cc1nc(N(C)C(=O)Oc2c(N3CCNC3=O)cc(C(F)(F)F)cc2C(F)(F)F)ccc1F [Example 53, 2-(2-oxoimidazolidin-1-yl)-4,6-bis(trifluoromethyl)phenyl (5-fluoro-6-methylpyridin-2-yl)(methyl)carbamate] | 2.7
CN(C(=O)Oc1c(N2CCN(CCO)C2=O)cc(Cl)cc1C(F)(F)F)c1ccc(F)cc1 [Example 54, 4-chloro-2-(3-(2-hydroxyethyl)-2-oxoimidazolidin-1-yl)-6-(trifluoromethyl)phenyl (4-fluorophenyl)(methyl)carbamate] | 68
CN(C(=O)Oc1c(Cl)cc(Cl)cc1N1CCN(CCO)C1=O)c1ccc(F)cc1 [Example 55, 2,4-dichloro-6-(3-(2-hydroxyethyl)-2-oxoimidazolidin-1-yl)phenyl (4-fluorophenyl)(methyl)carbamate] | 133

Same assay, conditions: 5 nM Polq polymerase domain (residues 1792-2590), 60 nM primer-template, 50 uM dNTPs, 37 °C, 18 min; read-out: IC50 (nM) Polq

SMILES | IC50 [nM]
CNCC(O)CN1CCN(c2cc(C(F)(F)F)cc(C(F)(F)F)c2OC(=O)N(C)c2ccc(F)cc2)C1=O (stereo not shown) [Example 48, 2-(3-(2-hydroxy-3-(methylamino)propyl)-2-oxoimidazolidin-1-yl)-4,6-bis(trifluoromethyl)phenyl (4-fluorophenyl)(methyl)carbamate] | 5.1
[2H]C([2H])([2H])N(C(=O)Oc1c(N2CCN(C[C@@H](O)CN(C)C)C2=O)cc(C(F)(F)F)cc1C(F)(F)F)c1ccc(F)cc1 [Example 49, (S)-2-(3-(3-(dimethylamino)-2-hydroxypropyl)-2-oxoimidazolidin-1-yl)-4,6-bis(trifluoromethyl)phenyl (4-fluorophenyl)(methyl-d3)carbamate] | 7.5
[2H]C([2H])([2H])N(C(=O)Oc1c(N2CCN(C[C@H](O)CN(C)C)C2=O)cc(C(F)(F)F)cc1C(F)(F)F)c1ccc(F)cc1 [Example 50, (R)-2-(3-(3-(dimethylamino)-2-hydroxypropyl)-2-oxoimidazolidin-1-yl)-4,6-bis(trifluoromethyl)phenyl (4-fluorophenyl)(methyl-d3)carbamate] | 5.1
CN(C(=O)Cc1c(N2CCNC2=O)cc(C(F)(F)F)cc1C(F)(F)F)c1ccc(F)cc1 [Example 51, N-(4-fluorophenyl)-N-methyl-2-(2-(2-oxoimidazolidin-1-yl)-4,6-bis(trifluoromethyl)phenyl)acetamide] | 117

Each molecule was assayed on cell types harboring BRCA2 mutations (PE01, VC8, CAPAN-1; BRCA2-null HCT116 and DLD1) (assay: Synergy with PARP inhibitors, clonogenic survival of BRCA2-mutated/null cells). Conditions: olaparib as PARP inhibitor, Combenefit software analysis.
Format: cell-based
From the text: FIG. 3A depicts a representative scatter plot and synergy plot showing clongenic survival of HCT116 BRCA2-null cells treated with varying concentrations of olaparib with DMSO or various concentrations of Example 6. FIG. 3B depicts a representative scatter plot synergy plot showing clongenic survival of DLD1 BRCA2-null cells treated with varying concentrations of olaparib with DMSO or various concentrations of Example 6. FIG. 3C depicts a representative scatter plot synergy plot showing clongenic survival of PE01 cells treated with varying concentrations of olaparib with DMSO or various concentrations of Example 6. FIG. 3D depicts a representative scatter plot synergy plot showing clongenic survival of VC8 cells treated with varying concentrations of olaparib with DMSO or various concentrations of Example 6. FIG. 3E depicts a representative scatter plot synergy plot showing clongenic survival of CAPAN-1 cells treated with varying concentrations of olaparib with DMSO or various concentrations of Example 6. FIG. 3F depicts a representative scatter plot showing clongenic survival of MDA-MB-231 cells following treatment with various concentrations of talazoparib and DMSO or various concentrations of Example 6 and representative images of colony plates. For FIG. 3A through FIG. 3F, data are presented as mean±SEM; n=3; p-values calculated by two-sample t test. […]

SMILES | synergy with PARP inhibitors (clonogenic survival)
CN(C(=O)Oc1c(N2CCN(CCO)C2=O)cc(C(F)(F)F)cc1C(F)(F)F)c1ccc(F)cc1 [Example 6, 2,4-bis(trifluoromethyl)-6-(3-(2-hydroxyethyl)-2-oxoimidazolidin-1-yl)phenyl (4-fluorophenyl)(methyl)carbamate] | Synergy
